Test results reported in the NIST ThermoML archive (doi:10.1021/je5002686).
Values joined by “and” are separate entries in the source; they are usually repeats but may differ in a detail not shown here. Equal values may be shown once.

Details: Liquid, Vibrating tube method

CCOC(F)(C(F)(F)C(F)(F)C(F)(F)F)C(F)(C(F)(F)F)C(F)(F)F (centres undefined) [2-trifluoromethyl-3-ethoxydodecafluorohexane]
mass density
Details	270 K	290 K	310 K	330 K	350 K
490 kPa	1678.1 kg/m3	1637.9 kg/m3	1597.2 kg/m3	1555.1 kg/m3	–
500 kPa	1678.3 kg/m3	1638.1 kg/m3 and 1638.2 kg/m3	1597.2 kg/m3 and 1597.5 kg/m3	1555.2 kg/m3 and 1555 kg/m3	1511.4 kg/m3 and 1511.5 kg/m3
510 kPa	–	–	–	–	1511.6 kg/m3
990 kPa	1679.2 kg/m3 and 1679.3 kg/m3	1639.4 kg/m3 and 1639.5 kg/m3	1598.7 kg/m3	–	1513.6 kg/m3
1000 kPa	1679.2 kg/m3	1639.2 kg/m3	1598.7 kg/m3 and 1599 kg/m3	1556.9 kg/m3 and 1556.7 kg/m3	1513.7 kg/m3 and 1513.5 kg/m3
1990 kPa	1681.3 kg/m3	1641.9 kg/m3	–	1560.4 kg/m3	1517.8 kg/m3
2000 kPa	1681.5 kg/m3	1641.7 kg/m3 and 1642 kg/m3	1601.6 kg/m3 and 1601.9 kg/m3	1560.2 kg/m3 and 1560.3 kg/m3	1517.6 kg/m3 and 1517.8 kg/m3
2990 kPa	–	1644.4 kg/m3	1604.8 kg/m3	1563.6 kg/m3	1521.8 kg/m3
3000 kPa	1683.4 kg/m3	1644.3 kg/m3 and 1644.1 kg/m3	1604.5 kg/m3 and 1604.4 kg/m3	1563.8 kg/m3 and 1563.7 kg/m3	1521.9 kg/m3 and 1521.7 kg/m3
3010 kPa	1683.6 kg/m3	–	–	–	–
3990 kPa	1685.5 kg/m3	1646.7 kg/m3 and 1646.5 kg/m3	1607.3 kg/m3	1567 kg/m3	–
4000 kPa	1685.6 kg/m3	1646.8 kg/m3	1607.2 kg/m3 and 1607.6 kg/m3	1567.1 kg/m3 and 1566.9 kg/m3	1525.8 kg/m3 and 1525.6 kg/m3 and 1525.7 kg/m3
4990 kPa	1687.5 kg/m3	1649.1 kg/m3	1609.9 kg/m3	1570.2 kg/m3	1529.4 kg/m3
5000 kPa	1687.7 kg/m3 and 1687.5 kg/m3	1648.9 kg/m3 and 1649.2 kg/m3	1610 kg/m3	1570.3 kg/m3 and 1570.1 kg/m3	1529.6 kg/m3 and 1529.5 kg/m3
5010 kPa	–	–	1610.3 kg/m3	–	–
9990 kPa	1697.3 kg/m3	1660.3 kg/m3 and 1660.1 kg/m3 and 1660.4 kg/m3	–	1585.3 kg/m3	1547.1 kg/m3
10000 kPa	1697.3 kg/m3 and 1697.4 kg/m3	–	1622.9 kg/m3 and 1623.3 kg/m3 and 1623 kg/m3	1585.1 kg/m3 and 1585.2 kg/m3	1546.9 kg/m3 and 1547 kg/m3
14990 kPa	1706.5 kg/m3	–	–	–	–
15000 kPa	1706.5 kg/m3 and 1706.6 kg/m3	1670.8 kg/m3 and 1670.6 kg/m3	1634.8 kg/m3 and 1635.2 kg/m3 and 1634.9 kg/m3	1598.9 kg/m3 and 1598.7 kg/m3 and 1598.8 kg/m3	1562.7 kg/m3 and 1562.5 kg/m3 and 1562.6 kg/m3
19990 kPa	–	1680.5 kg/m3 and 1680.3 kg/m3	1645.8 kg/m3 and 1645.9 kg/m3	1611.3 kg/m3 and 1611.2 kg/m3	1576.5 kg/m3 and 1576.6 kg/m3
20000 kPa	1715.1 kg/m3 and 1715.2 kg/m3	1680.6 kg/m3	1646.2 kg/m3	1611.2 kg/m3	1576.8 kg/m3
24990 kPa	1723.4 kg/m3	–	–	–	1589.6 kg/m3 and 1589.4 kg/m3 and 1589.5 kg/m3
25000 kPa	1723.3 kg/m3 and 1723.5 kg/m3	1689.7 kg/m3 and 1689.5 kg/m3	1656.1 kg/m3	1622.9 kg/m3 and 1622.6 kg/m3 and 1622.7 kg/m3	–
25010 kPa	–	–	1656.5 kg/m3 and 1656.2 kg/m3	–	–
29990 kPa	1731.3 kg/m3	–	1665.8 kg/m3	1633.5 kg/m3	1601.3 kg/m3
30000 kPa	1731.1 kg/m3 and 1731.2 kg/m3	1698.4 kg/m3	1666.2 kg/m3	1633.4 kg/m3 and 1633.5 kg/m3	1601.5 kg/m3 and 1601.4 kg/m3
30010 kPa	–	1698.3 kg/m3	1665.7 kg/m3	–	–
34990 kPa	1738.7 kg/m3	1706.7 kg/m3	1674.8 kg/m3	1643.6 kg/m3 and 1643.5 kg/m3	1612.3 kg/m3 and 1612.4 kg/m3
35000 kPa	1738.6 kg/m3 and 1738.7 kg/m3	1706.5 kg/m3	1674.9 kg/m3	1643.4 kg/m3	1612.6 kg/m3
35010 kPa	–	1706.7 kg/m3	1675.3 kg/m3	–	–
40000 kPa	1745.7 kg/m3 and 1745.8 kg/m3 and 1745.9 kg/m3	1714.6 kg/m3 and 1714.4 kg/m3 and 1714.5 kg/m3	1683.5 kg/m3 and 1683.9 kg/m3 and 1683.6 kg/m3	1653.1 kg/m3 and 1652.8 kg/m3 and 1652.9 kg/m3	–
44990 kPa	1752.7 kg/m3	1722.1 kg/m3	–	1661.8 kg/m3 and 1661.9 kg/m3	–
45000 kPa	1752.6 kg/m3	1721.9 kg/m3 and 1722.1 kg/m3	1691.7 kg/m3 and 1692.2 kg/m3 and 1691.8 kg/m3	1662 kg/m3	–
49930 kPa	–	1729.2 kg/m3	–	–	–
49940 kPa	–	1729.1 kg/m3	–	–	–
49950 kPa	–	1729 kg/m3	–	–	–
49960 kPa	1759.2 kg/m3	–	–	–	–
49970 kPa	1759.2 kg/m3	–	1699.6 kg/m3	–	–
49980 kPa	–	–	–	1670.4 kg/m3	–
49990 kPa	–	–	–	1670.3 kg/m3	–
50000 kPa	1759.4 kg/m3	–	–	–	–
50010 kPa	–	–	1699.6 kg/m3	1670.6 kg/m3	–
50050 kPa	–	–	1700.1 kg/m3	–	–
